The source of these data is US20260069538A1, “CXCR4 ANTAGONIST LOADED LIPOSOMES AND SILICASOMES” (The Regents of the University of California, priority 2021, published 2026).

Like-named read-outs stand apart in the source and are kept apart here.

Data set [1] in a line: Remote loading of CXCR4 antagonists in silicasomes (encapsulation efficiency, loading capacity). To be noted: for EE % / LC %: silicasome. Type of data set: physicochemical. As to the method: Following the application of a lipid bilayer, we used the weak basic properties of the of CXCR4 antagonists (AMD3100, AMD3465, AMD070) to attempt silicasome remote loading. To optimize the loading efficiency, two type of trapping agents, triethylammonium sucrose octasulfate (TEA8SOS) and ammonium sulfate ((NH4)2SO4) were tested. Briefly, for lipid coating, 40 mg/mL of the purified MSNPs were soaked in trapping agent solution (80 mM TEA8SOS or 300 mM (NH4)2SO4)) and were added to an ˜50% (w/v) lipids mixture (DSPC/Chol/DSPE-PEG2000, in the molar ratio of 3:2:0.15) solution in ethanol. The MSNP:lipid ratio was 1:1.25 (w/w). The suspension was sonicated using probe sonication (Ultrasonic Processor Model VCX130, 40% amplitude) at a 15 s/15 s on/off cycle.
The free trapping agent was removed through size exclusion chromatography using Sepharose CL-4B resin with a HEPES-buffered dextrose solution (5 mM HEPES, 5% dextrose, pH 6.5) for elution. For drug import, trapping agent-loaded particles were mixed with drug and incubated at 65° C. for 0.5 hour. The drug-laden silicasomes were purified by centrifugation to remove the free drug and liposomes; then filtered with a 0.2 μm membrane for sterilization. The drug concentration was determined by either UV spectroscopy or HPLC. Particle hydrodynamic size and zeta potential were measured by a ZETAPALS instrument (Brookhaven Instruments Corporation). The final product was visualized by cryoEM (TF20 FEI Tecnai-G2) to confirm the uniformity and integrity of the coated lipid bilayer.

In data set [2] the test system is human PDAC slices. Conditions: cited from earlier work.
The conditions of data set [3]: for EE % / LC %: liposome DSPC:Chol:DSPE-PEG2000 3:2:0.15, drug feed ratio 20% (drug:lipids w/w).
Method: This was followed by incubating the liposome suspension in the suspended CXCR4 antagonists using a feed ratio of 20%. The non-incorporated drug was removed by a PD-10 column.
To perform the drug loading, Mavorixafor (MAV or AMD11070) was prepared as stock solution in PBS and added at 20% w/w over the total wt. of the lipids. The MAV/liposome mixed solution was then heated at 65° C. for 1 h then cooled at room temperature for 30 minutes. The separation of encapsulated liposomal MAV (L-MAV) and non-encapsulated MAV (free MAV) was again, through the use of PD10 size exclusion column.
The elution profile of the free MAV is pre-determined by eluting free MAV through the PD10 and measuring the UV absorbance for each elution fraction at λmax 275 nm. In a typical run a 95%+ MAV recovery will be found between 10-20 mL fractions. The free-MAV fractions was collected and combined to quantify the free-MAV by UV at λmax 275 nm. Again, the L-MAV was collected from elution 2.75-5.75 mL (3 mL in total), the free-MAV was collected from 10-20 mL fractions.
Based on the free-MAV quantification, the drug loading of L-MAV was back calculated by subtracting the free MAV from the initial MAV feeding=20% w/w. […] Based on the drug loaded L-MAV concentration (mg/mL), L-MAV was concentrated by using 50 mL VIVA-spin tubes at 30 kDa cut-off to a final concentration of 0.1 mg/mL (=0.5 mg/kg per 200 μL injection for a 20 g mouse).
In data set [4] the test system is metastatic BC models (including 4T1). To be noted: in vivo; cited from earlier work.
Data set [5] deals with X4 HIV strains. To be noted: read-out: inhibits the replication of X4 HIV strains (IC50); cited from earlier work.
Data set [6] concerns KPC tumors. The data set can be described thus: Orthotopic KPC model: tumor weight and immunophenotyping. Type of data set: in vivo, mice.
The test system of data set [7] is 4T1 tumors. The data set can be described thus: Orthotopic 4T1 TNBC tumor model. Conditions: for tumor shrinkage / tumor size: orthotopic 4T1, IV administration.
From the text: Orthotopic 4T1 tumors were established as described in FIGS. 2-4.
Data set [8] relates to EMT6 tumors. The data set can be described thus: Orthotopic EMT6 breast cancer model. Format: in vivo, mouse (Balb/c).
Where [9] appears, read: (NH4)2SO4, drug feed ratio 50% (drug:MSNP w/w).
Where [10] appears, read: TEA8SOS, drug feed ratio 50% (drug:MSNP w/w).
The mark [11] stands for this setting: TEA8SOS, drug feed ratio 10% (drug:MSNP w/w).
Setting [12] is: TEA8SOS, drug feed ratio 20% (drug:MSNP w/w).

On to `c1cc(CN2CCCNCCNCCCNCC2)ccc1CN1CCCNCCNCCCNCC1` [AMD3100, Plerixafor], for which, in data set [1] (setting [9]), the EE % turned out to be 27% and the LC % is reported as 13.5%. In data set [1] (setting [10]), the EE % amounted to 51% and the LC % was found to be 25.5%. In addition, the “CTL migration to the juxta-tumoral PDAC compartment” value in data set [2] (tumor cell slices) is recorded as “improve CTL migration to the juxta-tumoral PDAC compartment”. The “CD8+ T-cell-mediated elimination of EpCAM+ PDAC cancer cells” value in data set [2] (tumor slice culture) is “did not exert similar effects”. Besides, in data set [3] ((NH4)2SO4), the EE % stood at 19% and the LC % worked out at 3.8%. In addition, in data set [3] (TEA8SOS), the EE % is 42.4% and the LC % worked out at 8.5%. Besides, in data set [4], the CTL recruitment entry is “increase CTL recruitment”, the blood perfusion result was “improve blood perfusion”, the desmoplasia result was “decrease desmoplasia” and the immunosuppression result was “decrease immunosuppression”. The metastatic spread result in data set [4] is “limit metastatic spread”.

Consider `c1ccc(CNCc2ccc(CN3CCCNCCNCCCNCC3)cc2)nc1` [AMD3465], for which the half-inhibitory concentration (IC50) (in general, the concentration that inhibits the measured activity by half) in data set [5] is 1 to 10 nM. Further, the EE % is reported as 34.5% in data set [1] (setting [9]), 25% in data set [1] (setting [10]), 68.4% in data set [3] ((NH4)2SO4) and 37.4% in data set [3] (TEA8SOS). Moreover, the LC % came out at 17.3% in data set [1] (setting [9]), 12.5% in data set [1] (setting [10]), 13.7% in data set [3] ((NH4)2SO4) and 7.5% in data set [3] (TEA8SOS).

For `NCCCCN(Cc1nc2ccccc2[nH]1)[C@H]1CCCc2cccnc21` [AMD11070, Mavorixafor], the “CXCR4 staining intensity (immunohistochemistry)” value in data set [6] is “encapsulated but not free AMD11070 delivery could significantly increase CXCR4 staining intensity”. For the same compound, in data set [7] (4T1 breast cancer tumors), the “T cell exclusion in the tumor margin (immunohistochemistry)” value is given as “interference in T cell exclusion in the margin”. Moreover, in data set [7] (orthotopic 4T1), the “CD8+ spatial distribution during mIHC analysis” value is “failed to show a significant effect”. Also, the “lung metastasis (IVIS imaging of explanted lungs)” value in data set [7] (orthotopic 4T1) is given as “significant metastasis reduction”; in data set [7] (orthotopic 4T1, listed as free AMD11070), “significant impact on lung metastases”. Besides, the “tumor shrinkage / tumor size” value in data set [7] (listed as Free AMD11070) is listed as “leads to tumor shrinkage”; in data set [7] (listed as free AMD11070) it was “tumor shrinkage could be obtained”. In data set [1] (silicasome in which sucrose sulfate was used (FIG. 11)), this compound came in with a loading capacity of 20%. In addition, the EE % in data set [1] (setting [9]) is 68%; in data set [1] (setting [11]) it was 95%; in data set [1] (setting [12]), 85%; in data set [1] (setting [10]) it was 70%; in data set [3] ((NH4)2SO4) it was 55.8%; in data set [3] (TEA8SOS), 84.3%. Also, the LC % is recorded as 34% in data set [1] (setting [9]); 9.5% in data set [1] (setting [11]); 17% in data set [1] (setting [12]); 35% in data set [1] (setting [10]); 11.2% in data set [3] ((NH4)2SO4); 16.9% in data set [3] (TEA8SOS). For the same compound, the “Typical MAV loading” value in data set [3] (liposome, 240 mM (NH4)2SO4, MAV feeding 20% w/w, back calculated from free MAV) is 8-15 % w/w. Moreover, the “best loading capacity (LC) in liposomes” value in data set [3] (liposomes) was determined as 17%. Also, the “tumor growth / tumor shrinkage” value in data set [8] is “neither free nor L-AMD11070 were able to interfere in tumor growth”.
